Measured values as given in article PMC8777765, “Identification of Cyclic Sulfonamides with an N-Arylacetamide Group as α-Glucosidase and α-Amylase Inhibitors: Biological Evaluation and Molecular Modeling” (Pharmaceuticals, 2022).

What was measured:
[1] = target: T1, Aspergillus oryzae α-amylase (Aspergillus oryzae, UniProt P0C1B3); assay: in vitro α-amylase inhibition (starch substrate, DNSA); format: biochemical
T1 construct: purchased Sigma-Aldrich, Munich, Germany
Description: A total of 40 µL of each test sample was pipetted out in 96-well microliter plates. This was mixed with 40 µL of Aspergillus oryzae α-amylase (Sigma-Aldrich, Munich, Germany) solution (prepared in Na2SO4 buffer (0.02 M, pH = 6.9)). Incubation of solutions was executed at 37 °C for 10 min. After incubation, 40 µL of starch solution prepared in 1% DMSO was added into each well as a substrate and placed at 25 °C for 10 min. After this, 100 µL of 3,5-dinitrosalicylic acid (DNSA) was added and incubated for 5 min in boiling water. After cooling and dilution of mixtures with distilled water (400 μL), the absorbance was recorded at 540 nm wavelength [91] and 37 °C temperature with the help of a microplate reader. […] Each experiment was carried out thrice, and percentage inhibitions were determined with the help of following expression, followed by the determination of IC50 values. % Inhibition = [(Acontrol − Asample)/Acontrol] × 100 where A is absorbance.

[2] = system: yeast α-glucosidase enzyme; assay: in vitro α-glucosidase inhibition (PNPG substrate); format: biochemical, Saccharomyces cerevisiae; details: for IC50: PNPG substrate
Description: α-Glucosidase inhibitions were determined following a modified spectroscopic method [87]. A solution of α-glucosidase (obtained from Saccharomyces cerevisiae (Sigma-Aldrich, Munich, Germany)) was prepared in phosphate buffer (pH 6.8, 100 mM). Wells of the 96-well microliter plates were filled with test sample solutions (12.5 μL) prepared in DMSO. After this, enzyme (0.5 U/mL, 40 μL) and then phosphate buffer (100 mM, 120 μL) were also mixed with the test sample solutions. Incubation at 37 °C for 5 min and then addition of 40 μL of the substrate, p-nitrophenyl-α-D-glucopyranoside (PNPG) (5 nM, Sigma-Aldrich, Munich, Germany), was performed. Mixtures were again incubated for 30 min, and absorbance was measured at 405 nm and 37 °C for the released 4-nitrophenol in each mixture. […] Each experiment was carried out thrice, and percentage inhibitions were determined with the help of following expression, followed by the determination of IC50 values. % Inhibition = [(Acontrol − Asample)/Acontrol] × 100 where A is absorbance.

[3] = target: human 11β-hydroxysteroid dehydrogenase type 1 (11β-HSD1); set-up: method as in PMID 21212546; details: cited from earlier work
[4] = system: severe acute respiratory syndrome coronavirus 2 (SARS-CoV-2); set-up: method as in PMID 33160024; details: cited from earlier work
[5] = target: aldose reductase; set-up: method as in PMID 22036211; details: cited from earlier work
[6] = target: α-glucosidase; assay: enzyme inhibition kinetics (Lineweaver–Burk), α-glucosidase; format: biochemical, Saccharomyces cerevisiae; details: secondary plots; PNPG 1–9 mM; read-out: Ki (inhibition constant), α-glucosidase
Source text: (§1) The pattern of the Lineweaver–Burk plot can visualize the type of inhibition, as shown in Figure 6A−F. […] Secondary plots were drawn to determine the value of the inhibition constant Ki and the dissociation constant Ki’. Smaller Ki implies higher enzyme inhibition, implying the possibility of an allosteric binding site in the enzyme, to which synthetic drugs could bind.
(§2) The Lineweaver–Burk equation was used to determine the type of inhibition. α-Glucosidase and α-amylase activities were studied in the absence and presence of various sample concentrations (0.1 mM, 0.25 mM, 0.5 mM, 0.75 mM and 1.0 mM). For α-glucosidase inhibition kinetics, PNPG was used as a substrate, with different concentrations (1 mM, 3 mM, 5 mM, 7 mM and 9 mM). In α-amylase inhibition kinetics, various amounts of starch solution (0.25–2%) were tested. All experiments were carried out in triplicate, and the outcomes were written as mean ± S.D.

[7] = target: T2, α-amylase (Aspergillus oryzae, UniProt P0C1B3); assay: enzyme inhibition kinetics (Lineweaver–Burk), α-amylase; format: biochemical; details: secondary plots; starch 0.25–2%; read-out: Ki (inhibition constant), α-amylase
T2 construct: purchased Sigma-Aldrich, Munich, Germany
Source text: as §1, §2

[8] = target: α-glucosidase; set-up: method as in PMID 32024621; details: read-out: α-glucosidase IC50 (literature); cited from earlier work

SMILES	IC50 [1] [µM]	melting point [°C]	α-glucosidase inhibition (in words) [2]	IC50 [2] [µM]	also measured
COc1cccc(C(=O)C2=C(O)c3ccccc3S(=O)(=O)N2CC(=O)Nc2cccc([N+](=O)[O-])c2)c1 [Compound 12e, 2-(4-Hydroxy-3-(3-methoxybenzoyl)-1,1-dioxido-2H-benzo[e][1,2]thiazin-2-yl)-N-(3-nitrophenyl)acetamide]	37.5	189 to 190	failed to show any remarkable inhibition	–	–
COc1cccc(C(=O)C2=C(O)c3ccccc3S(=O)(=O)N2CC(=O)Nc2ccc(Cl)cc2)c1 [Compound 12c, N-(4-Chlorophenyl)-2-(4-hydroxy-3-(3-methoxybenzoyl)-1,1-dioxido-2H-benzo[e][1,2]thiazin-2-yl)acetamide]	125	146 to 147	–	40.8	–
COc1cccc(C(=O)C2=C(O)c3ccccc3S(=O)(=O)N2CC(=O)Nc2cccc(Cl)c2)c1 [Compound 12b, N-(3-Chlorophenyl)-2-(4-hydroxy-3-(3-methoxybenzoyl)-1,1-dioxido-2H-benzo[e][1,2]thiazin-2-yl)acetamide]	–	–	failed to show any remarkable inhibition	–	–
COc1cccc(C(=O)C2=C(O)c3ccccc3S(=O)(=O)N2CC(=O)Nc2ccccc2Cl)c1 [Compound 12a, N-(2-Chlorophenyl)-2-(4-hydroxy-3-(3-methoxybenzoyl)-1,1-dioxido-2H-benzo[e][1,2]thiazin-2-yl)acetamide]	13.3	186 to 187	–	46.2	–
COc1cccc(C(=O)C2=C(O)c3ccccc3S(=O)(=O)N2)c1 [Compound 11, (4-Hydroxy-1,1-dioxido-2H-benzo[e][1,2]thiazin-3-yl)(3-methoxyphenyl)methanone]	147	–	failed to show any remarkable inhibition	–	–
O=C(CN1C(C(=O)Nc2ccccc2)=C(O)c2ccccc2S1(=O)=O)Nc1cccc(C(F)(F)F)c1 [Compound 3]	–	–	–	–	IC50 [3]: 0.041 µM
COc1cccc(C(=O)C2=C(O)c3ccccc3S(=O)(=O)N2CC(=O)Nc2ccccc2C)c1 [Compound 12j, 2-(4-Hydroxy-3-(3-methoxybenzoyl)-1,1-dioxido-2H-benzo[e][1,2]thiazin-2-yl)-N-(o-tolyl)acetamide]	–	166	failed to show any remarkable inhibition	–	–
COc1ccc(NC(=O)CN2C(C(=O)c3cccc(OC)c3)=C(O)c3ccccc3S2(=O)=O)cc1 [Compound 12m, 2-(4-Hydroxy-3-(3-methoxybenzoyl)-1,1-dioxido-2H-benzo[e][1,2]thiazin-2-yl)-N-(4-methoxyphenyl)acetamide]	122	201 to 202	failed to show any remarkable inhibition	–	–
O=C(CN1C(C(=O)Nc2ccc(F)c(Cl)c2)=C(O)c2ccc(F)cc2S1(=O)=O)Nc1ccc(C(F)(F)F)cc1 [Compound 4]	–	–	–	–	IC50 [4]: 0.88 µM
O=C(O)/C=C1\CN(Cc2ccc(Br)cc2F)S(=O)(=O)c2ccccc21 [Compound 5]	–	–	–	–	IC50 [5]: 0.11 µM
COc1cccc(C(=O)C2=C(O)c3ccccc3S(=O)(=O)N2CC(=O)Nc2ccc(Br)cc2)c1 [Compound 12i, N-(4-Bromophenyl)-2-(4-hydroxy-3-(3-methoxybenzoyl)-1,1-dioxido-2H-benzo[e][1,2]thiazin-2-yl)acetamide]	7.52	–	–	25.9	Ki [6]: 100 µM; Ki [7]: 70.4 µM
COc1cccc(C(=O)C2=C(O)c3ccccc3S(=O)(=O)N2CC(=O)Nc2ccccc2[N+](=O)[O-])c1 [Compound 12d, 2-(4-Hydroxy-3-(3-methoxybenzoyl)-1,1-dioxido-2H-benzo[e][1,2]thiazin-2-yl)-N-(2-nitrophenyl)acetamide]	15.1	–	failed to show any remarkable inhibition	102	–
COc1cccc(C(=O)C2=C(O)c3ccccc3S(=O)(=O)N2CC(=O)Nc2cccc(Br)c2)c1 [Compound 12h, N-(3-Bromophenyl)-2-(4-hydroxy-3-(3-methoxybenzoyl)-1,1-dioxido-2H-benzo[e][1,2]thiazin-2-yl)acetamide]	110	132 to 133	–	86.2	–
C/C(=N\NC(=O)C1=C(O)c2ccccc2S(=O)(=O)N1C)c1ccccc1 [Compound 7]	–	–	–	–	IC50 [8]: 4.2 µM
COc1cccc(C(=O)C2=C(O)c3ccccc3S(=O)(=O)N2CC(=O)Nc2ccc([N+](=O)[O-])cc2)c1 [Compound 12f, 2-(4-Hydroxy-3-(3-methoxybenzoyl)-1,1-dioxido-2H-benzo[e][1,2]thiazin-2-yl)-N-(4-nitrophenyl)acetamide]	29	176 to 177	–	97	–
COc1cccc(C(=O)C2=C(O)c3ccccc3S(=O)(=O)N2CC(=O)Nc2ccccc2Br)c1 [Compound 12g, N-(2-Bromophenyl)-2-(4-hydroxy-3-(3-methoxybenzoyl)-1,1-dioxido-2H-benzo[e][1,2]thiazin-2-yl)acetamide]	11.7	169 to 171	–	35.1	–
C/C(=N\NC(=O)C1=C(O)c2ccccc2S(=O)(=O)N1)c1ccccc1 [Compound 6]	–	–	–	–	IC50 [8]: 3.9 µM
COc1cccc(C(=O)C2=C(O)c3ccccc3S(=O)(=O)N2CC(=O)Nc2ccccc2OC)c1 [Compound 12l, 2-(4-Hydroxy-3-(3-methoxybenzoyl)-1,1-dioxido-2H-benzo[e][1,2]thiazin-2-yl)-N-(2-methoxyphenyl)acetamide]	–	–	failed to show any remarkable inhibition	110	–
COc1cccc(C(=O)C2=C(O)c3ccccc3S(=O)(=O)N2CC(=O)Nc2cccc(C)c2)c1 [Compound 12k, 2-(4-Hydroxy-3-(3-methoxybenzoyl)-1,1-dioxido-2H-benzo[e][1,2]thiazin-2-yl)-N-(m-tolyl)acetamide]	67.2	150 to 151	–	30.4	–
